Results published in ChEMBL document CHEMBL4364241, “Developments in the anticancer activity of structurally modified curcumin: An up-to-date review” (Eur J Med Chem, 2019).
One block for each compound: values may come before it.

Key:
HCT-116 = test: Cytotoxicity against human HCT116 Cells; format: functional, cell-based
SGC-7901 = test: Antiproliferative activity against human SGC7901 cells after 24 hrs by MTT assay; format: functional, cell-based; details: SGC-7901, 24 h
SW-620 = test: Cytotoxicity against human SW620 Cells; format: functional, cell-based
PC-3 [1] = test: Anticancer activity against human PC3 cells; format: functional, cell-based
MGC-803 = test: Antiproliferative activity against human MGC803 cells after 24 hrs by MTT assay; format: functional, cell-based; details: MGC-803, 24 h
BGC-823 = test: Antiproliferative activity against human BGC823 cells after 24 hrs by MTT assay; format: functional, cell-based; details: BGC-823, 24 h
DU-145 = test: Anticancer activity against human DU145 cells; format: functional, cell-based
CT26 = test: Cytotoxicity against mouse CT26 cells; format: functional, cell-based
L02 [2] = test: Cytotoxicity against human LO2 Cells; format: functional, cell-based
HeLa = test: Cytotoxicity against human HeLa Cells; format: functional, cell-based
HepG2 = test: Cytotoxicity against human HepG2 Cells; format: functional, cell-based
K562 = test: Antiproliferative activity against human K562 Cells; format: functional, cell-based
THP-1 = test: Cytotoxicity against human THP1 Cells; format: functional, cell-based
[3] = target: Tyrosine-protein kinase ABL1 (Homo sapiens, UniProt P00519); test: Inhibition of Wild type ABL (unknown origin)
[4] = target: Tyrosine-protein kinase ABL1 (Homo sapiens, UniProt P00519, T315I); test: Inhibition of ABL T315I mutant (unknown origin)
[5] = target: Tyrosine-protein kinase ABL1 (Homo sapiens, UniProt P00519, Y253F); test: Inhibition of ABL Y253F mutant (unknown origin)
[6] = target: Tyrosine-protein kinase ABL1 (Homo sapiens, UniProt P00519, Q252H); test: Inhibition of ABL Q252H mutant (unknown origin)
A549 [7] = test: Cytotoxicity against human A549 Cells after 24 hrs by MTT assay; format: functional, cell-based; details: A549, 24 h
SK-OV-3 = test: Cytotoxicity against human SKOV3 Cells after 24 hrs by MTT assay; format: functional, cell-based; details: SK-OV-3, 24 h
PC-3 [8] = test: Cytotoxicity against human PC3 cells by MTT assay; format: functional, cell-based
A549 [9] = test: Cytotoxicity against human A549 Cells by MTT assay; format: functional, cell-based
NCI-H460 = test: Cytotoxicity against human H460 cells by MTT assay; format: functional, cell-based
MCF7 [10] = test: Cytotoxicity against human MCF7 cells by MTT assay; format: functional, cell-based
MIA PaCa-2 = test: Cytotoxicity against human MIAPaCa2 cells by MTT assay; format: functional, cell-based
PANC-1 = test: Cytotoxicity against human PANC1 cells by MTT assay; format: functional, cell-based
HT-29 = test: Cytotoxicity against human HT-29 cells by MTT assay; format: functional, cell-based
MCF7 [11] = test: Induction of apoptosis in human MCF7 cells; format: functional, cell-based
MCF7 [12] = test: Cytotoxicity against human MCF7 Cells after 48 hrs by neutral red dye-based assay; format: functional, cell-based; details: MCF7, 48 h
HEp-2 = test: Cytotoxicity against human Hep2 Cells; format: functional, cell-based
L02 [13] = test: Cytotoxicity against human HL-7702 cells; format: functional, cell-based
HSC-4 = test: Cytotoxicity against human HSC4 cells; format: functional, cell-based
HSC-2 = test: Cytotoxicity against human HSC2 cells; format: functional, cell-based
HL-60 = test: Cytotoxicity against human HL60 cells; format: functional, cell-based
HSC-3 = test: Cytotoxicity against human HSC3 cells; format: functional, cell-based

IC50 (SGC-7901): 4300 nM
IC50 (PC-3 [1]): 3500 nM
IC50 (MGC-803): 2700 nM
IC50 (BGC-823): 3300 nM
IC50 (DU-145): 3700 nM
Compound: COc1cc(/C=C/C(=O)/C=C/c2ccccc2[N+](=O)[O-])ccc1O
IC50 (HCT-116): 2200 nM
IC50 (SW-620): 2800 nM
IC50 (CT26): 1600 nM

IC50 (K562): 4800 nM
Compound: C/C(=C/C(=O)c1ccccc1)Nc1cccc(/C=C2\CN(C)C/C(=C\c3cccc(N/C(C)=C/C(=O)c4ccccc4)c3)C2=O)c1
IC50 (L02 [2]): 13100 nM
IC50 (HeLa): > 10000 nM
IC50 (HepG2): 5520 nM
IC50 (THP-1): 1170 nM

IC50 [3]: 83.3 nM
IC50 [4]: 67.3 nM
IC50 [5]: 79.8 nM
IC50 [6]: 185 nM
Compound: COc1cc(C=C(C(=O)/C=C/c2ccc(O)c(OC)c2)C(=O)/C=C/c2ccc(O)c(OC)c2)ccc1O

Compound: O=C(/C=C/c1ccccc1C(F)(F)F)/C=C/c1ccccc1C(F)(F)F
IC50 (A549 [7]): 3100 nM

Compound: COc1cc(/C=C/C2=NN(c3nc(/N=C4/CC[C@H]5[C@@H]6CC[C@H]7C[C@@H](OC(C)=O)CC[C@]7(C)[C@H]6CC[C@]45C)cc(=O)[nH]3)C(/C=C/c3cc(OC)cc(OC)c3)C2)cc(OC)c1 (some centres undefined)
IC50 (SK-OV-3): 2500 nM

Compound: CN1CC(Cc2ccc(N(C)C)cc2[N+](=O)[O-])C(=NO)C(Cc2ccc(N(C)C)cc2[N+](=O)[O-])C1 (centres undefined)
IC50 (PC-3 [8]): 80 nM
IC50 (A549 [9]): 90 nM
IC50 (NCI-H460): 80 nM
IC50 (MCF7 [10]): 90 nM
IC50 (MIA PaCa-2): 70 nM
IC50 (PANC-1): 100 nM
IC50 (HT-29): 50 nM

IC50 (MCF7 [11]): 1500 nM
Compound: COc1cc(/C=C/C(=O)C(=CC2CCN(C(=O)OC(C)(C)C)CC2)C(=O)/C=C/c2ccc(O)c(OC)c2)ccc1O

Compound: COc1cc(/C=C/C2=NN(c3nc(/N=C4\CC[C@H]5[C@@H]6CC[C@H]7C[C@@H](OC(C)=O)CC[C@]7(C)[C@H]6CC[C@]45C)cc(=O)[nH]3)C(/C=C/c3ccc(O)c(OC)c3)C2)ccc1O (some centres undefined)
IC50 (MCF7 [12]): 18000 nM

Compound: CCN1C/C(=C\c2cc(OC)c(OC)c(OC)c2)C(=O)/C(=C/c2cc(OC)c(OC)c(OC)c2)C1
IC50 (HEp-2): 16600 nM
IC50 (L02 [13]): 46800 nM

Compound: CN1CCC(Cc2ccc(/C=C/C(=O)/C=C/c3ccc(CN4CCN(C)CC4)c(O)c3)cc2O)CC1
IC50 (HSC-4): 3000 nM
IC50 (HSC-2): 3900 nM
IC50 (HL-60): 1800 nM
IC50 (HSC-3): 3000 nM
